# Read-outs that look alike come from different tables or passages of the source.
# Target: T1, AR protein (Homo sapiens, UniProt P10275, T878A)
# T1 construct: The percent AR protein degradation induced by these compounds at various concentrations in LNCaP cells; host or cells: LNCaP
# T1 sequence (P10275 1-920 T878A): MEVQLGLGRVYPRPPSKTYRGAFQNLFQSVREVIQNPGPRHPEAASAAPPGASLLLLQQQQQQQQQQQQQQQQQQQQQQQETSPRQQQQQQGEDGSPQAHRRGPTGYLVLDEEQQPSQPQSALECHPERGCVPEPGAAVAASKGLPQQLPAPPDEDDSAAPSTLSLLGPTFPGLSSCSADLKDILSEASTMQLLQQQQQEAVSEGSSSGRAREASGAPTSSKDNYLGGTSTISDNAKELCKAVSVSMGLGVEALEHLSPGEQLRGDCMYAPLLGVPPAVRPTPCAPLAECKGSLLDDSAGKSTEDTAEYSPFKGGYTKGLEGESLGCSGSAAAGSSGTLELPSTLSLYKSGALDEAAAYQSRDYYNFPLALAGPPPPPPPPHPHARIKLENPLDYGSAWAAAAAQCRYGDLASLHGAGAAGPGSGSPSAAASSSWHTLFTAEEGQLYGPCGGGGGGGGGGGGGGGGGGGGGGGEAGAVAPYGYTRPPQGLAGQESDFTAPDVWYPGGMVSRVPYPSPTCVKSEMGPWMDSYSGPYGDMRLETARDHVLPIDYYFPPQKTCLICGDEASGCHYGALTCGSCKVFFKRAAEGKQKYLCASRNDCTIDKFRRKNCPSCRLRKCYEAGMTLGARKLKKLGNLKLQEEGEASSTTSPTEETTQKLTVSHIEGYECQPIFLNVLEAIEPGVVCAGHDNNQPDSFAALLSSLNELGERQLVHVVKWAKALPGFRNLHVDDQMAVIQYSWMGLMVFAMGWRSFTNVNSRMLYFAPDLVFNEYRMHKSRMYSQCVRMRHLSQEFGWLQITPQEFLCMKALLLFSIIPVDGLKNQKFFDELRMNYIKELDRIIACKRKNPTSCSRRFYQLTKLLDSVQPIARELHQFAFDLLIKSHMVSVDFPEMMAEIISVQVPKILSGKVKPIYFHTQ
# Assay: AR protein degradation in LNCaP cells (Western blotting)
# Assay type: cell-based
# Conditions: LNCaP; for Dmax at 0.1 µM / Dmax at 1 µM / Dmax at 10 µM: read-out: % AR protein degradation in LNCaP Cells
# Protocol: Cell lines and Cell Culture: All the LNCaP, VCaP and 22RV1 cells used were purchased from American Type Culture Collection (ATCC). […] All of the cells were supplemented with 10% fetal bovine serum (Invitrogen) at 37° C. in a humidified 5% CO2 incubator.
# Western Blotting. Treated cells were lysed by RIPA buffer supplemented with protease and phosphatase inhibitors. […] Software ImageJ was used to quantify the percentage of AR degradation. The net protein bands and loading controls are calculated by deducting the background from the inverted band value. The final relative quantification values are the ratio of net band to net loading control.
# [1] = 0.1 μM, treatment time 6 h, average of three independent experiments
# [2] = 1 μM, treatment time 6 h, average of three independent experiments
# [3] = 10 μM, treatment time 6 h, average of three independent experiments
structure (smiles),measurement,setting,value
"Cc1ncsc1-c1ccc(CNC(=O)C2C[C@@H](O)CN2C(=O)[C@@H](NC(=O)CCNC(=O)c2ccc(N3C(=S)N(c4ccc(C#N)c(C(F)(F)F)c4)C(=O)C3(C)C)cc2F)C(C)(C)C)cc1 (stereo partly drawn) [Compound 8, (4R)-1-((S)-2-(3-(4-(3-(4-Cyano-3-(trifluoromethyl)phenyl)-5,5-dimethyl-4-oxo-2-thioxoimidazolidin-1-yl)-2-fluorobenzamido)propanamido)-3,3-dimethylbutanoyl)-4-hydroxy-N-(4-(4-methylthiazol-5-yl)benzyl)pyrrolidine-2-carboxamide]",Dmax at 0.1 µM,[1],26%
same,Dmax at 1 µM,[2],35%
same,Dmax at 10 µM,[3],28%
"Cc1ncsc1-c1ccc(CNC(=O)C2C[C@@H](O)CN2C(=O)[C@@H](NC(=O)CCCNC(=O)c2ccc(N3C(=S)N(c4ccc(C#N)c(C(F)(F)F)c4)C(=O)C3(C)C)cc2F)C(C)(C)C)cc1 (stereo partly drawn) [Compound 9, (4R)-1-((S)-2-(4-(4-(3-(4-Cyano-3-(trifluoromethyl)phenyl)-5,5-dimethyl-4-oxo-2-thioxoimidazolidin-1-yl)-2-fluorobenzamido)butanamido)-3,3-dimethylbutanoyl)-4-hydroxy-N-(4-(4-methylthiazol-5-yl)benzyl)pyrrolidine-2-carboxamide]",Dmax at 0.1 µM,[1],15%
same,Dmax at 1 µM,[2],23%
same,Dmax at 10 µM,[3],33%
"Cc1ncsc1-c1ccc(CNC(=O)C2C[C@@H](O)CN2C(=O)[C@@H](NC(=O)CCCCNC(=O)c2ccc(N3C(=S)N(c4ccc(C#N)c(C(F)(F)F)c4)C(=O)C3(C)C)cc2F)C(C)(C)C)cc1 (stereo partly drawn) [Compound 10, (4R)-1-((S)-2-(5-(4-(3-(4-Cyano-3-(trifluoromethyl)phenyl)-5,5-dimethyl-4-oxo-2-thioxoimidazolidin-1-yl)-2-fluorobenzamido)pentanamido)-3,3-dimethylbutanoyl)-4-hydroxy-N-(4-(4-methylthiazol-5-yl)benzyl)pyrrolidine-2-carboxamide]",Dmax at 0.1 µM,6 h,16%
same,Dmax at 1 µM,6 h,20%
same,Dmax at 10 µM,6 h,25%
"Cc1ncsc1-c1ccc(CNC(=O)C2C[C@@H](O)CN2C(=O)[C@@H](NC(=O)CCCCCNC(=O)c2ccc(N3C(=S)N(c4ccc(C#N)c(C(F)(F)F)c4)C(=O)C3(C)C)cc2F)C(C)(C)C)cc1 (stereo partly drawn) [Compound 11, (4R)-1-((S)-2-(6-(4-(3-(4-Cyano-3-(trifluoromethyl)phenyl)-5,5-dimethyl-4-oxo-2-thioxoimidazolidin-1-yl)-2-fluorobenzamido)hexanamido)-3,3-dimethylbutanoyl)-4-hydroxy-N-(4-(4-methylthiazol-5-yl)benzyl)pyrrolidine-2-carboxamide]",Dmax at 0.1 µM,[1],11%
same,Dmax at 1 µM,[2],25%
same,Dmax at 10 µM,[3],29%
"Cc1ncsc1-c1ccc(CNC(=O)C2C[C@@H](O)CN2C(=O)[C@@H](NC(=O)CCCCCCNC(=O)c2ccc(N3C(=S)N(c4ccc(C#N)c(C(F)(F)F)c4)C(=O)C3(C)C)cc2F)C(C)(C)C)cc1 (stereo partly drawn) [Compound 12, (4R)-1-((S)-2-(7-(4-(3-(4-Cyano-3-(trifluoromethyl)phenyl)-5,5-dimethyl-4-oxo-2-thioxoimidazolidin-1-yl)-2-fluorobenzamido)heptanamido)-3,3-dimethylbutanoyl)-4-hydroxy-N-(4-(4-methylthiazol-5-yl)benzyl)pyrrolidine-2-carboxamide]",Dmax at 0.1 µM,[1],54%
same,Dmax at 1 µM,[2],84%
same,Dmax at 10 µM,[3],64%
"Cc1ncsc1-c1ccc(CNC(=O)C2C[C@@H](O)CN2C(=O)[C@@H](NC(=O)CCCCCCCNC(=O)c2ccc(N3C(=S)N(c4ccc(C#N)c(C(F)(F)F)c4)C(=O)C3(C)C)cc2F)C(C)(C)C)cc1 (stereo partly drawn) [Compound 13, (4R)-1-((S)-2-(8-(4-(3-(4-Cyano-3-(trifluoromethyl)phenyl)-5,5-dimethyl-4-oxo-2-thioxoimidazolidin-1-yl)-2-fluorobenzamido)octanamido)-3,3-dimethylbutanoyl)-4-hydroxy-N-(4-(4-methylthiazol-5-yl)benzyl)pyrrolidine-2-carboxamide]",Dmax at 0.01 µM,"0.01 μM, treatment time 6 h, average of three independent experiments",8%
same,Dmax at 0.1 µM,[1],29%
same,Dmax at 1 µM,[2],65%
